Test results: patent US12054497B2, “Substituted heterocyclic fused cyclic compound, preparation method therefor and pharmaceutical use thereof” (GENFLEET THERAPEUTICS (SHANGHAI) INC., priority 2019, dated 2024)
Like-named read-outs stand apart in the source and are kept apart here.

Experiments:
[1] = system: MIA PaCa-2 cells with Kras G12C mutation; test: Cell proliferation inhibition experiment, 3D spheroid, CellTiter-Glo (Test Example 3); type: cell-based, human; settings: 5 days, read-out: MIA-PaCa2 IC50
Summary of the method: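 MIA PaCa-2 spheroids (200 cells/well) were formed overnight, then exposed for 5 days to compounds in 3.16-fold dilutions at 0.1% DMSO. Viability was read by CellTiter-Glo luminescence, and inhibition was normalised to DMSO control and medium blank. IC50 came from a four-parameter fit.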

[2] = biological target: KRas G12C (Homo sapiens (Human), UniProt P01116, G12C); test: Nucleotide exchange assay (NEA)-HTRF, SOS1 catalyzed displacement of GDP by GTP (Test Example 4); type: biochemical
Summary of the method: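 His-tagged KRas G12C preloaded with DY647-GDP (40 nM working solution, with anti-His Tb) was preincubated 15 min with compound at 20 °C. SOS1/GTP (0.2 μM/200 μM working solution) was then added for 2 h in the dark. The HTRF 665/615 nm ratio gave inhibition relative to no-compound control and SOS1/GTP-free T0, with a four-parameter IC50 fit.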

[3] = Pharmacokinetic evaluation on mice, intragastric (PO) administration (Test Example 6); type: in vivo; settings: mouse, plasma, PO 15 mg/kg, male CD-1 mice; for bioavailability: read-out: F (bioavailability); for Cmax: read-out: Cmax; for Tmax: read-out: Tmax
Method: Experimental objective: male CD-1 mice were chosen as tested animals, and the LC-MS-MS method was employed to measure the concentrations of a tested compound in blood plasma of a mouse intravenously and intragastrically administrated with the tested compound at different times. The pharmacokinetic behaviors of tested compounds in mice were studied, and the pharmacokinetic characteristics thereof were evaluated.
Experimental scheme: experimental animals: 18 healthy adult male CD-1 mice (6 to 8 weeks old, and body weight about 30 g) were divided into 6 groups according to the principle of similar body weights: 3 mice in each of IV groups (3 groups), and 3 mice in each of PO groups (3 groups). The animals were purchased from Shanghai Jihui Laboratory Animal Care Co., Ltd.
Formulation: IV group: taking 10 mL of sample solution for example, 4 mg of sample was weighed, orderly added with 0.5 mL of DMSO and […], then added with […] of HP-p-CD, finally added with water to a constant volume of 10 mL, and stirred and subjected to ultrasonic irradiation, thereby obtaining a 0.4 mg/mL clear solution. PO group: an appropriate amount of sample was weighed, orderly added with appropriate amounts of Labrasol and water in a volume ratio of 10:40, and stirred and subjected to ultrasonic irradiation, thereby obtaining a 1.5 mg/mL uniform solution.
Administration: after being deprived of food for one night, the IV groups were intravenously administrated with the formulated solutions, respectively, with an injection volume of 5 mL/kg and a dosage of 2 mg/kg. The PO groups were intragastrically administrated with the formulated solutions, respectively, with an injection volume of […] and a dosage of 15 mg/kg.
Experimental operations: after the intravenous injection groups and the intragastric administration groups of the male CD-1 mice were administrated with the tested compounds, 110 ul of blood was sampled at the following time points: 0.0833, 0.25, 0.5, 1, 2, 4, 6, 8, and 24 hours. The sampled blood was placed into an anticoagulant tube which was added with K2EDTA in advance and preserved in dry ice. The tube was centrifuged for 15 minutes to separate blood plasma, and the separated blood plasma was preserved at −70° C. The animals were allowed to be fed after 4 hours of administration. The LC-MS-MS method was employed to measure the concentration of the tested compounds in the blood plasma after the intravenous and intragastric administration to the mice. The linear range of the method was 1-3000 ng/ml. The blood plasma samples were analyzed after protein precipitation with ACN.

[4] = Homo sapiens, MIA PaCa-2, 120 h

Sequence of KRas G12C (P01116-2 other isoform, or with tags, fused parts or gaps G12C): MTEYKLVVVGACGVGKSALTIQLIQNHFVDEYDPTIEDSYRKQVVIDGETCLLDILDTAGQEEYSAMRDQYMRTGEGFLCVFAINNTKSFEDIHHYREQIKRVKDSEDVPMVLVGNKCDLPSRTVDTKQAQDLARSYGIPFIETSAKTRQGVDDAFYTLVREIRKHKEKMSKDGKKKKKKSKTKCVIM

Structure (SMILES) | IC50 [1, 4] [nM] | IC50 [2] [nM] | bioavailability [3] [%] | Cmax [3] [ng/mL] | Tmax [3] [h] | IC50 ([1]; Homo sapiens, 120 h) [nM] | IC50 [1] [nM]
C=CC(=O)N1CCN2c3c(c(=O)n(-c4c(C)ccnc4C(C)C)c4nc(-c5c(O)cccc5F)c(F)cc34)N(C)C(=O)[C@H]2C1 (single isomer, unassigned) [Compound Z9-2] | 17 | 115 | 103 | 13200 | 1 | – | –
C=CC(=O)N1C[C@@H]2C(=O)N(C)c3c(c4cc(F)c(-c5c(O)cccc5F)nc4n(-c4c(C)ccnc4C(C)C)c3=O)N2C[C@H]1C (single isomer, unassigned) [Compound Z10-2] | 8 | 37 | 59.2 | 3960 | 1 | – | –
C=CC(=O)N1CCN2c3c(c(=O)n(-c4c(C)ccnc4C(C)C)c4nc(-c5c(O)cccc5F)c(Cl)cc34)N(C)C(=O)[C@H]2C1 (single isomer, unassigned) [Compound Z25-2] | – | 25 | 93.5 | 6640 | 1.93 | 5 | –
[2H]C([2H])([2H])N1C(=O)[C@H]2CN(C(=O)C=C)CCN2c2c1c(=O)n(-c1c(C)ccnc1C(C)C)c1nc(-c3c(O)cccc3F)c(Cl)cc21 (single isomer, unassigned) [Compound Z26-2] | – | 40 | – | – | – | – | 5
C=CC(=O)N1C[C@@H]2C(=O)N(C)c3c(c4cc(Cl)c(-c5c(O)cccc5F)nc4n(-c4c(C)ccnc4C(C)C)c3=O)N2C[C@H]1C (single isomer, unassigned) [Compound Z27-2] | 1 | 9 | 96.8 | 3660 | 1.74 | – | –
C=CC(=O)N1CCN2c3c(c(=O)n(-c4c(C(C)C)ncnc4C(C)C)c4c(F)c(-c5c(O)cccc5F)c(Cl)cc34)NC(=O)[C@H]2C1 (single isomer, unassigned) [Compound Z37-1] | 2 | 11 | – | – | – | – | –
C=CC(=O)N1CCN2c3c(c(=O)n(-c4c(C)ccnc4C(C)C)c4nc(-c5c(O)cccc5F)c(F)cc34)OC[C@H]2C1 [Compound Z1, (4aR)-3-acryloyl-11-fluoro-10-(2-fluoro-6-hydroxyphenyl)-8-(2-isopropyl-4-methylpyridin-3-yl)-1,2,3,4,4a,5-hexahydropyrazino[1′,2′:4,5][1,4]oxazino[2,3-c][1,8]naphthyridin-7(8H)-one] | 90 | 255 | – | 2600 | 0.25 | – | –
C=CC(=O)N1CCN2c3c(c(=O)n(-c4c(C(C)C)ncnc4C(C)C)c4nc(-c5c(O)cccc5F)c(Cl)cc34)N(C)C(=O)[C@H]2C1 [Compound Z48] | 6 | – | 38.1 | 1250 | 0.5 | – | –
